Test results from patent publication US9980489B2, “Stabilized bio-available soluble silicate solution” (priority 2010, dated 2018).

Tested on: silicon accumulator plants, silicon diffusion plants and silicon rejecting plants
Conditions: foliar spray every week, solution containing 0002 mg/ml Si

Substance: silicic acid
- effect on growth, production, resistance to infection, color of fruits, shelf life: clear effect
